These are literature values, as cited in patent US20200078478A1, “Structural molecule of peptide derivative for PSMA-targeting radiotherapy diagnosis and treatment” (priority 2018, published 2020).

For the data set the following is noted: Lu-177 labeled, clinical treatment.

The half-life is the time needed for the level to fall by half in the phase considered. In the case of `O=C(O)CC[C@H](NC(=O)N[C@@H](CCCCNC(=O)[C@H](Cc1ccc2ccccc2c1)NC(=O)[C@H]1CC[C@H](CNC(=O)CN2CCN(CC(=O)O)CCN(CC(=O)O)CCN(CC(=O)O)CC2)CC1)C(=O)O)C(=O)O` [PSMA-617], the half-life is 10.8 h.
